Target: T1, c-Met kinase (recombinant c-Met) (Homo sapiens, UniProt P08581)
T1 construct: 0.27 nM recombinant c-Met
Assay: In vitro kinase assay I (homogeneous time-resolved fluorescence tyrosine kinase assay)
Type: biochemical
Outline: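 Biotinylated peptide (0.5 μM) phosphorylated by 0.2 nM recombinant c-Met with 50 μM MgATP, 60 min at room temperature, pH 7.4, 5% DMSO. EDTA stop; HTRF read with Eu-anti-phosphotyrosine antibody and streptavidin-APC. IC50 from 4-parameter logistic fit.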

T1 sequence (P08581 25-1390): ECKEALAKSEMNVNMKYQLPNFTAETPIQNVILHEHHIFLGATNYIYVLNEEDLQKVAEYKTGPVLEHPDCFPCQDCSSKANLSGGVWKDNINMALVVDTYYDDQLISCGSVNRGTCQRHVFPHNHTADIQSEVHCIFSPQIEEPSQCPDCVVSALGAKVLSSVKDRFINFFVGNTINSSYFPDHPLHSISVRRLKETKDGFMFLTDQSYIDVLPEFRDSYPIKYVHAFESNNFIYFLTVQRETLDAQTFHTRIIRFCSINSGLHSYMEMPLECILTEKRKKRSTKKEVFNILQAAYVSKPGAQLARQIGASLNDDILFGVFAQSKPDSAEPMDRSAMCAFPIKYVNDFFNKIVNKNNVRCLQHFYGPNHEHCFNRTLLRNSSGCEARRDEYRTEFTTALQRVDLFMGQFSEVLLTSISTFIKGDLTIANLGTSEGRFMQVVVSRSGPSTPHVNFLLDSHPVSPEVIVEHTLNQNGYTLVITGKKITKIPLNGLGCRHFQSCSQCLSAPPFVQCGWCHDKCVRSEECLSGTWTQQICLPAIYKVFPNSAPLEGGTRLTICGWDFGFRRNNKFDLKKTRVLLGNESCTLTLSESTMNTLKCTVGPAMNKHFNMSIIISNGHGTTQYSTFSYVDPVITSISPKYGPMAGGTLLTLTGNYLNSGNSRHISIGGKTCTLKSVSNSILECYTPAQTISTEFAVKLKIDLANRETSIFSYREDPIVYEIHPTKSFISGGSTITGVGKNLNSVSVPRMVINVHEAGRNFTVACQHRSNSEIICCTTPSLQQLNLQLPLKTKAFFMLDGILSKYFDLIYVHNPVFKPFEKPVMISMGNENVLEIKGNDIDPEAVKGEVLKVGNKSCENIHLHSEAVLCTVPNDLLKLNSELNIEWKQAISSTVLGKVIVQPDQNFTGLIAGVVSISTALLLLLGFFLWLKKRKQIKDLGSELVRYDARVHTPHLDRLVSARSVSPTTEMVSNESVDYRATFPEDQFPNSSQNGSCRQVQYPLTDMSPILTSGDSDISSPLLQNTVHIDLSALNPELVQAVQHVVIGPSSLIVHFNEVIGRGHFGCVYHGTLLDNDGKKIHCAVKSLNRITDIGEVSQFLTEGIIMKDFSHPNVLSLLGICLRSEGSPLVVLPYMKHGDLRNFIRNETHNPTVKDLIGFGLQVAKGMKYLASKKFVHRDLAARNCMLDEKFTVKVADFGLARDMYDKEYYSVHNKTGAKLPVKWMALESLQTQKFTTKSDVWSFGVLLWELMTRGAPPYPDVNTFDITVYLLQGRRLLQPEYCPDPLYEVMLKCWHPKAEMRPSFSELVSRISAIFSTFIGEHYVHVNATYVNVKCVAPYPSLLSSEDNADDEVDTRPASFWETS

Row | IC50 | Structure (SMILES)
1 | < 0.1 µM | COc1cnc(-c2cccc(Cc3nn(-c4cncc(F)c4)ccc3=O)c2)nc1 [Example 36, 1-(5-fluoropyridin-3-yl)-3-[3-(5-methoxypyrimidin-2-yl)benzyl]pyridazin-4(1H)-one]
2 | < 0.1 µM | COc1cnc(-c2cccc(Cc3nn(-c4cncc(C)c4)ccc3=O)c2)nc1 [Example 37, 3-[3-(5-methoxypyrimidin-2-yl)benzyl]-1-(5-methylpyridin-3-yl)pyridazin-4(1H)-one]
3 | 1 to 3 µM | Cn1cc(-n2ccc(=O)c(Cc3cccc(-c4cnccn4)c3)n2)cn1 [Example 38, 1-(1-methyl-1H-pyrazol-4-yl)-3-[3-(pyrazin-2-yl)benzyl]pyridazin-4(1H)-one]
4 | 0.1 to 1 µM | Cn1cc(-n2ccc(=O)c(Cc3cccc(-c4ccn(C)n4)c3)n2)cn1 [Example 39, 1-(1-methyl-1H-pyrazol-4-yl)-3-[3-(1-methyl-1H-pyrazol-3-yl)benzyl]pyridazin-4(1H)-one]
5 | 1 to 3 µM | Cc1nccc(-c2cccc(Cc3nn(-c4cnn(C)c4)ccc3=O)c2)n1 [Example 40, 1-(1-methyl-1H-pyrazol-4-yl)-3-[3-(2-methylpyrimidin-4-yl)benzyl]pyridazin-4(1H)-one]
6 | 1 to 3 µM | Cc1noc(-c2cccc(Cc3nn(-c4cnn(C)c4)ccc3=O)c2)n1 [Example 41, 3-[3-(3-methyl-1,2,4-oxadiazol-5-yl)benzyl]-1-(1-methyl-1H-pyrazol-4-yl)pyridazin-4(1H)-one]
7 | 0.1 to 1 µM | Cc1nc(-c2cccc(Cc3nn(-c4cnn(C)c4)ccc3=O)c2)no1 [Example 42, 3-[3-(5-methyl-1,2,4-oxadiazol-3-yl)benzyl]-1-(1-methyl-1H-pyrazol-4-yl)pyridazin-4(1H)-one]
8 | 0.1 to 1 µM | O=c1ccn(-c2ccc(Cl)cc2)nc1Cc1ccc2ncccc2c1 [Example 43, 1-(4-chlorophenyl)-3-(quinolin-6-ylmethyl)pyridazin-4(1H)-one]
9 | 1 to 3 µM | Cc1ccc2c(Cc3nn(-c4cnn(C)c4)ccc3=O)cccc2n1 [Example 44, 1-(1-methyl-1H-pyrazol-4-yl)-3-[(2-methylquinolin-5-yl)methyl]pyridazin-4(1H)-one]
10 | 1 to 3 µM | Cn1cc(-n2ccc(=O)c(Cc3cccc4c3CNC4=O)n2)cn1 [Example 45, 4-{[1-(1-methyl-1H-pyrazol-4-yl)-4-oxo-1,4-dihydropyridazin-3-yl]methyl}-2,3-dihydro-1H-isoindol-1-one]
11 | 1 to 3 µM | Cn1cc(-n2ccc(=O)c(Cc3ccc4nccn4c3)n2)cn1 [Example 46, 3-(imidazo[1,2-a]pyridin-6-ylmethyl)-1-(1-methyl-1H-pyrazol-4-yl)pyridazin-4(1H)-one]
12 | 0.1 to 1 µM | CCOC(=O)c1cccc(Cc2nn(-c3cnn(C)c3)ccc2=O)c1F [Example 47, ethyl 2-fluoro-3-{[1-(1-methyl-1H-pyrazol-4-yl)-4-oxo-1,4-dihydropyridazin-3-yl]methyl}benzoate]
13 | 1 to 3 µM | Cn1cc(-n2ccc(=O)c(Cc3cccc(CC(N)=O)c3)n2)cn1 [Example 48, 2-(3-{[1-(1-methyl-1H-pyrazol-4-yl)-4-oxo-1,4-dihydropyridazin-3-yl]methyl}phenyl)acetamide]
14 | 1 to 3 µM | Cn1cc(-n2ccc(=O)c(Cc3ccc4nn(C)cc4c3)n2)cn1 [Example 49, 3-[(2-methyl-2H-indazol-5-yl)methyl]-1-(1-methyl-1H-pyrazol-4-yl)pyridazin-4(1H)-one]
15 | 1 to 3 µM | Cn1cc(-n2ccc(=O)c(Cc3cccc4[nH]ncc34)n2)cn1 [Example 50, 3-(1H-indazol-4-ylmethyl)-1-(1-methyl-1H-pyrazol-4-yl)pyridazin-4(1H)-one]
16 | 1 to 3 µM | Cn1cc(-n2ccc(=O)c(Cc3ccc4occc4c3)n2)cn1 [Example 51, 3-(1-benzofuran-5-ylmethyl)-1-(1-methyl-1H-pyrazol-4-yl)pyridazin-4(1H)-one]
17 | < 0.1 µM | CCCOC(=O)Nc1cccc(Cc2nn(-c3cnn(C)c3)ccc2=O)c1 [Example 52, propyl (3-{[1-(1-methyl-1H-pyrazol-4-yl)-4-oxo-1,4-dihydropyridazin-3-yl]methyl}phenyl)carbamate]
18 | < 0.1 µM | CC(C)COC(=O)Nc1cccc(Cc2nn(-c3cnn(C)c3)ccc2=O)c1 [Example 53, 2-methylpropyl (3-{[1-(1-methyl-1H-pyrazol-4-yl)-4-oxo-1,4-dihydropyridazin-3-yl]methyl}phenyl)carbamate]
19 | < 0.1 µM | COCCOC(=O)Nc1cccc(Cc2nn(-c3cnn(C)c3)ccc2=O)c1 [Example 54, 2-methoxyethyl (3-{[1-(1-methyl-1H-pyrazol-4-yl)-4-oxo-1,4-dihydropyridazin-3-yl]methyl}phenyl)carbamate]
20 | 0.1 to 1 µM | Cn1cc(-n2ccc(=O)c(Cc3ccc4ncccc4c3)n2)cn1 [Example 55, 1-(1-methyl-1H-pyrazol-4-yl)-3-(quinolin-6-ylmethyl)pyridazin-4(1H)-one]
21 | < 0.1 µM | CCCOC(=O)Nc1cccc(Cc2nn(-c3cc(Cl)nc(Cl)c3)ccc2=O)c1 [Example 56, propyl (3-{[1-(2,6-dichloropyridin-4-yl)-4-oxo-1,4-dihydropyridazin-3-yl]methyl}phenyl)carbamate]
22 | < 0.1 µM | CCCn1cnc(-c2cccc(Cc3nn(-c4cnn(C)c4)ccc3=O)c2)n1 [Example 57, 1-(1-methyl-1H-pyrazol-4-yl)-3-[3-(1-propyl-1H-1,2,4-traizol-3-yl)benzyl]pyridazin-4(1H)-one]
23 | 0.1 to 1 µM | Cn1cc(-n2ccc(=O)c(Cc3cccc(-c4nnn(C)n4)c3)n2)cn1 [Example 58, 1-(1-methyl-1H-pyrazol-4-yl)-3-[3-(2-methyl-2H-tetrazol-5-yl)benzyl]pyridazin-4(1H)-one]
24 | 0.1 to 1 µM | CCOc1cnc2ccc(Cc3nn(-c4cnn(C)c4)ccc3=O)cc2c1 [Example 59, 3-[(3-ethoxyquinolin-6-yl)methyl]-1-(1-methyl-1H-pyrazol-4-yl)pyridazin-4(1H)-one]
25 | 0.1 to 1 µM | Cn1cc(-n2ccc(=O)c(Cc3ccc4ncc(OCCN5CCOCC5)cc4c3)n2)cn1 [Example 60, 1-(1-methyl-1H-pyrazol-4-yl)-3-{[3-(2-morpholin-4-ylethoxy)quinolin-6-yl]methyl}pyridazin-4(1H)-one]
26 | 0.1 to 1 µM | COCCOc1cnc2ccc(Cc3nn(-c4cnn(C)c4)ccc3=O)cc2c1 [Example 61, 3-{[3-(2-methoxyethoxy)quinolin-6-yl]methyl}-1-(1-methyl-1H-pyrazol-4-yl)pyridazin-4(1H)-one]
27 | < 0.1 µM | Cn1cc(-n2ccc(=O)c(Cc3ccc4ncc(OCC5(C)COC5)cc4c3)n2)cn1 [Example 62, 3-({3-[(3-methyloxetan-3-yl)methoxy]quinolin-6-yl}methyl)-1-(1-methyl-1H-pyrazol-4-yl)pyridazin-4(1H)-one]
28 | < 0.1 µM | CCCOc1cnc2ccc(Cc3nn(-c4cnn(C)c4)ccc3=O)cc2c1 [Example 63, 1-(1-methyl-1H-pyrazol-4-yl)-3-[(3-propoxyquinolin-6-yl)methyl]pyridazin-4(1H)-one]
29 | 0.1 to 1 µM | CCOc1cnc2ccc(Cc3nn(-c4cc(F)c(F)c(F)c4)ccc3=O)cc2c1 [Example 65, 3-[(3-ethoxyquinolin-6-yl)methyl]-1-(3,4,5-trifluorophenyl)pyridazin-4(1H)-one]
30 | < 0.1 µM | COCCn1cnc(-c2cccc(Cc3nn(-c4cnn(C)c4)ccc3=O)c2)n1 [Example 66, 3-{3-[1-(2-methoxyethyl)-1H-1,2,4-triazol-3-yl]benzyl}-1-(1-methyl-1H-pyrazol-4-yl)pyridazin-4(1H)-one]

From patent US20120264735A1 (priority 2009, published 2012)
